Here are results for three compounds from patent publication US20100075364A1, “METHOD FOR SELECTING MAMMAL TRANSFORMED CELLS” (FOOD AND DRUG SAFETY CENTER, priority 2008, published 2010).

In series [1] the test system is Bhas 42 cells. The series can be described thus: Selection of Bhas 42 transformed cells by BP treatment and light irradiation. In kind it is cell-based, mouse. The settings on record: BP 20 ng/mL + light irradiation 2 J/cm^2 (UVA), observed 24 hours later. As for the experimental part: Whether or not transformed cells can be selected using active oxygens other than hydrogen peroxide was analyzed. Since such active oxygens other than hydrogen peroxide are extremely unstable and have a short life time, they cannot be used as reagents. Accordingly, benzo(a)pyrene (BP) for generating superoxide anion radical as a result of light irradiation was utilized. Transformed foci were induced in Bhas 42 cells (by the method of Example 1), and the medium was then exchanged with a phosphate buffered saline (2 mL/well). […] Using a sunlight simulator, light was applied to the cells (300 to 800 nm; UVA irradiation intensity: 5.6 mW/cm^2; irradiation time: 6 minutes; irradiation dose: 2 J/cm^2), and the medium was then exchanged. Twenty-four hours later, the resultant cells were observed.

Series [2] deals with Bhas 42 cells. The series can be described thus: Bhas 42 cell transformation test with MCA, hydrogen peroxide method with dye and Giemsa staining. In kind it is cell-based, mouse. To be noted: MCA 0.1, 0.3, 1 μg/mL for 3 days; 0.0015% hydrogen peroxide day 21, alamarBlue or WST-8. The procedure:
A basic experiment was carried out as follows. In a Bhas 42 cell transformation test using a 96-well plate (0.1 mL of medium/well), 0.05 mL of a medium containing hydrogen peroxide (in a concentration 3 times higher than the final concentration) was added on the 21st day after cell inoculation. 1 to 24 hours later, 0.05 mL of a medium containing alamarBlue or WST-8 (0.01 mL of dye+0.04 mL of medium) was added.
Whether or not the transformation of Bhas 42 cells could be quantified with a dye was analyzed using MCA. The cells were inoculated (200 cells/0.05 mL of medium/well), and on the following day, 0.05 mL of a medium containing MCA (0.2, 0.6, and 2 μg/mL: all of which were 2 times higher than the final concentrations that were 0.1, 0.3, and 1 μg/mL, respectively) was added thereto. The cells were treated for 3 days, and a medium containing hydrogen peroxide (0.0045%: 3 times higher than the final concentration that was 0.0015%) was added thereto on the 21st day after cell inoculation. 24 hours later, a dye was added, and measurement was then carried out. Thereafter, 0.02 mL of glutaraldehyde (2.5%: approximately 10 times higher than the final concentration that was 0.25%) was further added, and the resultant cells were then left for 30 minutes or more for fixation. Thereafter, the cells were washed with water and were then subjected to Giemsa staining.

A further series relates to mouse lung tumor cells. To be noted: 0.015% final, 24 hours, lung tumor slices.
Series [3] deals with Bhas 42 cells. To be noted: depending on concentration and treatment time (1 to 24 hours).
Procedure: 1 to 24 hours later, 0.05 mL of a medium containing alamarBlue or WST-8 (0.01 mL of dye+0.04 mL of medium) was added. Three hours after the addition of the aforementioned medium, a fluorescence level (excitation: 530 nm; measurement: 590 nm) or absorbance (450 nm) was measured (FIG. 2).
In order to find conditions under which normal cells are killed but transformed cells survive, an experiment was carried out to obtain an appropriate concentration of hydrogen peroxide and an appropriate treatment time.
For series [4], the system named is Bhas 42 cells. To be noted: 0.0015% final, 24 hours. As for the experimental part: In order to observe the morphology of a transformed focus and the morphology of normal cells existing around the transformed focus before and after a treatment with hydrogen peroxide, the following experiment was carried out using 3-methylcholanthrene (MCA) as an initiator. […] Thereafter, 0.2 mL of a medium containing hydrogen peroxide (0.0165%: 11 times higher than the final concentration that was 0.0015%) was added, and the transformed focus was then observed 24 hours after the addition of hydrogen peroxide.

Series [5] has as its system Hu-MI cells and human cancer cells (A549, FLC-5, HCT 116, MKN28). To be noted: 0.003% final, 24 hours, day 14. As for the experimental part:
Whether or not human transformed cells can also be selected by treatment with hydrogen peroxide was analyzed. […] An experimental system was prepared, such that a large number of Hu-MI cells and a small number of human cancer cells (A549 cells: lung cancer; FLC-5 cells: liver cancer; HCT 116 cells: colon cancer; and MKN28 cells: stomach cancer) were simultaneously inoculated and such that they were co-cultured.
The Hu-MI cells (10^4 cells/well) and various types of cancer cells (500 cells/well for FLC-5 cells; and 100 cells/well for other cells) were each inoculated on a 6-well plate (2 mL of medium/well). On the 14th day after the inoculation, 0.2 mL of medium containing hydrogen peroxide (0.033%: 11 times higher than the final concentration that was 0.003%) was added thereto, and the cells were then observed 24 hours after the addition of hydrogen peroxide. As a medium, MEM+10% fetal bovine serum was used.

Procedure for mouse lung tumor cells: Whether or not the transformed cells can be selected even in vivo was analyzed. The following experiment was carried out using rasH2 mice (human c-Ha-ras gene-introduced mice; female; 6-week-old). N-ethyl-N-nitrosourea used as an initiator was intraperitoneally administered to each mouse (120 mg/kg/10 mL of physiological saline). From 1 week after the administration of N-ethyl-N-nirosourea, butylhydroxytoluene used as a promoter was orally administered once a week, repeatedly for 7 weeks (400 mg/kg/10 mL of corn oil). Thereafter, the mouse was further bred for 2 weeks. […] The medium was left at rest in a CO2 incubator (5% CO2, 37° C.) for 24 hours, and the sample was then stained with a trypan blue solution (prepared by adding 0.002% trypan blue to phosphate buffered saline) for 10 minutes. It is to be noted that trypan blue is not incorporated into living cells but is incorporated into dead cells, and that it stains the cells blue.

On to `c1ccc2c(c1)cc1ccc3cccc4ccc2c1c34` [BP, benzo(a)pyrene], for which the “selection of the transformed cells” value in the series with Bhas 42 cells [1] is given as “observed only in the case of a BP treatment+light irradiation group”.

On to `Cc1ccc2cc3c(ccc4ccccc43)c3c2c1CC3` [MCA, 3-methylcholanthrene], for which the “transformed foci and fluorescence level or absorbance” value with Bhas 42 cells [2] is on record as “increased depending on the dosage”.

For `OO` [hydrogen peroxide], in the series on mouse lung tumor cells, the “trypan blue staining (dead cells) of tumor and non-tumor portion” value is given as “only the non-tumor portion was stained blue”. Besides, in the series on Bhas 42 cells [3], the “effect on normal cells versus transformed focus wells, absorbance of WST-8 as indicator” value is listed as “specifically destroys normal cells”. Besides, in the series with Bhas 42 cells [4] (day 21), the “morphology of normal cells around the transformed focus after addition of hydrogen peroxide” value was “cytoplasm was denatured”. For the same compound, in the series with Bhas 42 cells [4] (day 21, foci induced by 1 μg/mL MCA), the “morphology of the transformed focus after addition of hydrogen peroxide” value was “not changed”. Moreover, in series [5], the “fate of Hu-MI cells (considered normal cells)” value was “died and were thereby removed”; the “fate of human cancer cells (A549, FLC-5, HCT 116, MKN28)” value is “remained in the state of colonies and survived”.
